What all share (assay type): biochemical
In one assay the target is HDAC1 (Homo sapiens (Human), UniProt Q13547). As to the kind of experiment: Histone deacetylase assay (BPS Biosciences), HDAC1. Particulars: human recombinant enzyme. On the procedure: Histone deacetylase assay was done as per manufacturer's instructions. Briefly, assay buffer, 200 uM HDAC substrate (fluorogenic HDAC acetylated peptide substrate for class I HDACs (HDACs 1, 2 and 3) and class 2b HDACs (HDACs 6 and 10) and 1% BSA are taken as a master mixture and aliquoted as 40 uL per well. Compounds (10×) were diluted in assay buffer and were added to respective wells of a black 96 well plate. For HDAC1 (1.4 ng/μL) and for HDAC6 (7 ng/μL) human recombinant enzyme was thawed on ice and 5 μL of respective enzyme was added per well. The plate was incubated at 37° C. for 1 hour. Developer solution was then added (50 μL per well) and incubated at room temperature for 10 minutes. Fluorescence was measured at an excitation wavelength of 350-380 nm and emission wavelength of 440-480 nm.

For a further assay, the target named is LSD1 (Homo sapiens (Human), UniProt O60341). As to the kind of experiment: TR-FRET assay for LSD1 (Perkin Elmer). How it is done:
LSD1 enzyme was produced in house. Tranylcypromine (TCP), LSD1 inhibitor was procured from Selleckchem. LSD1 enzyme, TCP and Biotinylated peptide substrate were diluted in assay buffer just before use. 2× inhibitor (10 μL, diluted in assay buffer) or Assay Buffer, and 5 nM enzyme were added to a 96 well plate and incubated at room temperature for 30 min. […] Stop Solution containing 300 μM tranylcypromine in 1×LANCE Detection Buffer was added to the wells and incubated for 5 min at RT. Then, Detection mixture containing 2 nM Eu-Ab and 50 nM ULight-Streptavidin in 1×LANCE Detection Buffer was prepared and added to the reaction mixture. This mixture was incubated for 1 hour at room temperature.

The target in the next assay is HDAC6 (Homo sapiens (Human), UniProt Q9UBN7). As to the kind of experiment: Histone deacetylase assay (BPS Biosciences), HDAC6. The following applies: human recombinant enzyme. How it is done: Histone deacetylase assay was done as per manufacturer's instructions. […] Fluorescence was measured at an excitation wavelength of 350-380 nm and emission wavelength of 440-480 nm.

Here are results for 24 compounds from US20250162994A1, “DUAL LSD1/HDAC INHIBITORS” (JUBILANT EPICORE LLC, priority 2022, published 2025).

Where a name gives a salt, the structure may show the parent alone.

One may read the IC50 as the concentration needed to halve the response being measured.

HDAC1, sequence (Q13547 whole entry): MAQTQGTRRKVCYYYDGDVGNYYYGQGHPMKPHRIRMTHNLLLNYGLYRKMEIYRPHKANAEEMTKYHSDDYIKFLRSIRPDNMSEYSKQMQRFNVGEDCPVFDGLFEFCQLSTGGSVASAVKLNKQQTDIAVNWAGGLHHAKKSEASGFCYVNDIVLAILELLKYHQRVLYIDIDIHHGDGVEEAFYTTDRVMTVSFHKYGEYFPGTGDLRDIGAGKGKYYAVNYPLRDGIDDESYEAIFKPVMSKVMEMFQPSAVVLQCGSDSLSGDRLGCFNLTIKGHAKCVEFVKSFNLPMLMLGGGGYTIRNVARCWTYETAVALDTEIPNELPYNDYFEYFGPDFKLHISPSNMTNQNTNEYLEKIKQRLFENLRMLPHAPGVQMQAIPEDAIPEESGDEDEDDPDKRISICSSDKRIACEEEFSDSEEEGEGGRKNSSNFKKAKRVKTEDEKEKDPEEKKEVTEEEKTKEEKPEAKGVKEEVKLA
HDAC6, sequence (Q9UBN7 whole entry): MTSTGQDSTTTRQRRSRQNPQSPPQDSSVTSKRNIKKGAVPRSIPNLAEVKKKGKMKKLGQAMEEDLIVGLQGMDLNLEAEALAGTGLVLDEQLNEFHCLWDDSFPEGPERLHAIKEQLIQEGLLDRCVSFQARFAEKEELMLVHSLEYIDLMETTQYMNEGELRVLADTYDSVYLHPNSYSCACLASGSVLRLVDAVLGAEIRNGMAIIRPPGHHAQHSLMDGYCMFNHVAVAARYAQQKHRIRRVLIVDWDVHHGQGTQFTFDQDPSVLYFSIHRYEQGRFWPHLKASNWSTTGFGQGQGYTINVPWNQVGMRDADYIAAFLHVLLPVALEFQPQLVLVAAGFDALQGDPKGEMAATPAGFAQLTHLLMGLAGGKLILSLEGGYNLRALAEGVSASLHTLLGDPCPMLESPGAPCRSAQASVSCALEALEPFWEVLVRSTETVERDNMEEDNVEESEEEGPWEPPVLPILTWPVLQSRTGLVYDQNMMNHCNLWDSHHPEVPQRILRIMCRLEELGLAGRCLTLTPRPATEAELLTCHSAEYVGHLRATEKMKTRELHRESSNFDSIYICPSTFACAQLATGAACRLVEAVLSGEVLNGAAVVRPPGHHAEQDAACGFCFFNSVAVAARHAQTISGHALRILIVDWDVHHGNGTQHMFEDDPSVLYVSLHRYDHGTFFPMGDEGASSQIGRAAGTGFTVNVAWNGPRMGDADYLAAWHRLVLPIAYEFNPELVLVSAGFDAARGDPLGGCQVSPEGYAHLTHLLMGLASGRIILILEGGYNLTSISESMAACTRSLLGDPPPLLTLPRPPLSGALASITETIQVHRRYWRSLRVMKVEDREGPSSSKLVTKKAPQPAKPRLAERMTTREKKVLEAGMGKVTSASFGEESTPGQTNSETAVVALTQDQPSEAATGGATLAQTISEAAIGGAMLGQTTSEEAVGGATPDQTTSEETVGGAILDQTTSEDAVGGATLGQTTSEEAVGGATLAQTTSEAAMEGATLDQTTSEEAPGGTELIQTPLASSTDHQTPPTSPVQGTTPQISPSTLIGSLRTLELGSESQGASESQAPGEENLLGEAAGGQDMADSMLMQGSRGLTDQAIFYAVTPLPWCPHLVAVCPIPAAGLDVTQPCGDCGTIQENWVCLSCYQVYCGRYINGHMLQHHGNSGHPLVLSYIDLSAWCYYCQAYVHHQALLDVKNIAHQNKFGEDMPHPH

As to `O=C(NO)c1ccc(Cn2cc(CN[C@@H]3C[C@H]3c3ccccc3)cn2)cc1` [Compound 1, N-hydroxy-4-((4-((((1R,2S)-2-phenylcyclopropyl)amino)methyl)-1H-pyrazol-1-yl)methyl)benzamide hydrobromide], the IC50 at HDAC1 worked out at 923 nM.
For `O=C(NO)c1ccc(Cn2cc(CN[C@H]3C[C@@H]3c3ccccc3)cn2)cc1` [Compound 2, N-hydroxy-4-((4-((((1S,2R)-2-phenylcyclopropyl)amino)methyl)-1H-pyrazol-1-yl)methyl)benzamide], the IC50 on HDAC1 was determined as 1550 nM.
As to `O=C(NO)c1ccc(CCCN2CCC(CN[C@@H]3C[C@H]3c3cnn(-c4ccccc4)c3)CC2)cc1` [Compound 3, N-hydroxy-4-(3-(4-((((1R,2S)-2-(1-phenyl-1H-pyrazol-4-yl)cyclopropyl)amino)methyl)piperidin-1-yl)propyl)benzamide], the figures for the IC50 at LSD1 and at HDAC6 were 9 nM and 88 nM, respectively.
Consider `O=C(NO)c1ccc(CCCN2CCC(CN[C@H]3C[C@@H]3c3cnn(-c4ccccc4)c3)CC2)cc1` [Compound 4, N-hydroxy-4-(3-(4-((((1S,2R)-2-(1-phenyl-1H-pyrazol-4-yl)cyclopropyl)amino)methyl)piperidin-1-yl)propyl)benzamide], for which the values for the concentration for half-maximal inhibition (IC50) against LSD1 and at HDAC6 were 5 nM and 72 nM, respectively.
Take `O=C(NO)c1ccc(/C=C/C(=O)N2CC(CN[C@@H]3C[C@H]3c3ccc(F)cc3)C2)cc1` [Compound 5, 4-((E)-3-(3-((((1R,2S)-2-(4-fluorophenyl)cyclopropyl)amino)methyl)azetidin-1-yl)-3-oxoprop-1-en-1-yl)-N-hydroxybenzamide]: the values for the IC50 at LSD1 and on HDAC6 were 31 nM and 84 nM, respectively.
`O=C(NO)c1ccc(/C=C/C(=O)N2CC(CN[C@H]3C[C@@H]3c3ccc(F)cc3)C2)cc1` [Compound 6, 4-((E)-3-(3-((((1S,2R)-2-(4-fluorophenyl)cyclopropyl)amino)methyl)azetidin-1-yl)-3-oxoprop-1-en-1-yl)-N-hydroxybenzamide]: the half-maximal inhibitory concentration (IC50) against LSD1 came out at 147 nM; at HDAC6, 144 nM.
As for `O=C(NO)c1ccc(CCCN2CCC(CN[C@@H]3C[C@H]3c3ccc(-c4cncnc4)cc3)CC2)cc1` [Compound 7, N-hydroxy-4-(3-(4-((((1R,2S)-2-(4-(pyrimidin-5-yl)phenyl)cyclopropyl)amino)methyl)piperidin-1-yl)propyl)benzamide], the values for the IC50 against LSD1, on HDAC6 and on HDAC1 were 6 nM, 151 nM and 4530 nM, respectively.
As for `O=C(NO)c1ccc(CCCN2CCC(CN[C@H]3C[C@@H]3c3ccc(-c4cncnc4)cc3)CC2)cc1` [Compound 8, N-hydroxy-4-(3-(4-((((1S,2R)-2-(4-(pyrimidin-5-yl)phenyl)cyclopropyl)amino)methyl)piperidin-1-yl)propyl)benzamide], the values for the half-inhibitory concentration (IC50) on LSD1, at HDAC6 and at HDAC1 were 8 nM, 159 nM and 2470 nM, respectively.
Take `CN1C(=O)C(C)(C)c2cc([C@@H]3C[C@H]3NCC3CCN(CCCc4ccc(C(=O)NO)cc4)CC3)ccc21` [Compound 9, N-hydroxy-4-(3-(4-((((1R,2S)-2-(1,3,3-trimethyl-2-oxoindolin-5-yl)cyclopropyl)amino)methyl)piperidin-1-yl)propyl)benzamide]: the half-inhibitory concentration (IC50) at LSD1 came to 403 nM; at HDAC6, 192 nM.
`CN1C(=O)C(C)(C)c2cc([C@H]3C[C@@H]3NCC3CCN(CCCc4ccc(C(=O)NO)cc4)CC3)ccc21` [Compound 10, N-hydroxy-4-(3-(4-((((1S,2R)-2-(1,3,3-trimethyl-2-oxoindolin-5-yl)cyclopropyl)amino)methyl)piperidin-1-yl)propyl)benzamide]: the results for the IC50 on LSD1 and on HDAC6 were 1210 nM and 135 nM, respectively.
For the compound `Nc1ccccc1NC(=O)c1ccc(CCCN2CCC(CN[C@@H]3C[C@H]3c3ccc(F)cc3)CC2)cc1` [Compound 15, N-(2-aminophenyl)-4-(3-(4-((((1R,2S)-2-(4-fluorophenyl)cyclopropyl)amino)methyl)piperidin-1-yl)propyl)benzamide], at HDAC1, the concentration for half-maximal inhibition (IC50) turned out to be 7720 nM.
In the case of `Nc1ccccc1NC(=O)c1ccc(CCCN2CCC(CN[C@H]3C[C@@H]3c3ccc(F)cc3)CC2)cc1` [Compound 16, N-(2-aminophenyl)-4-(3-(4-((((1S,2R)-2-(4-fluorophenyl)cyclopropyl)amino)methyl)piperidin-1-yl)propyl)benzamide], the half-inhibitory concentration (IC50) at HDAC1 worked out at 295 nM.
With `CC(C)n1cc([C@@H]2C[C@H]2NCC2CCN(CCCc3ccc(C(=O)Nc4ccccc4N)cc3)CC2)cn1` [Compound 17, N-(2-aminophenyl)-4-(3-(4-((((1R,2S)-2-(1-isopropyl-1H-pyrazol-4-yl)cyclopropyl)amino)methyl)piperidin-1-yl)propyl)benzamide], the IC50 against LSD1 came to 101 nM; on HDAC1, 1040 nM.
With `CC(C)n1cc([C@H]2C[C@@H]2NCC2CCN(CCCc3ccc(C(=O)Nc4ccccc4N)cc3)CC2)cn1` [Compound 18, N-(2-aminophenyl)-4-(3-(4-((((1S,2R)-2-(1-isopropyl-1H-pyrazol-4-yl)cyclopropyl)amino)methyl)piperidin-1-yl)propyl)benzamide], the IC50 on LSD1 stood at 139 nM; at HDAC1, 2890 nM.
With `Cn1cc(-c2ccc([C@@H]3C[C@H]3NCC3CCN(Cc4ccc(C(=O)Nc5ccccc5N)cc4)CC3)cc2)ccc1=O` [Compound 19, N-(2-aminophenyl)-4-((4-((((1R,2S)-2-(4-(1-methyl-6-oxo-1,6-dihydropyridin-3-yl)phenyl)cyclopropyl)amino)methyl)piperidin-1-yl)methyl)benzamide], inhibition on LSD1 was half-maximal at 6 nM (IC50).
`Cn1cc(-c2ccc([C@H]3C[C@@H]3NCC3CCN(Cc4ccc(C(=O)Nc5ccccc5N)cc4)CC3)cc2)ccc1=O` [Compound 20, N-(2-aminophenyl)-4-((4-((((1S,2R)-2-(4-(1-methyl-6-oxo-1,6-dihydropvridin-3-yl)phenyl)cyclopropyl)amino)methyl)piperidin-1-yl)methyl)benzamide]: half-maximal inhibition against LSD1 (IC50) required 20 nM.
Turning to `Nc1ccccc1NC(=O)c1ccc(Cn2cc(CN[C@@H]3C[C@H]3c3ccc(F)cc3)nn2)cc1` [Compound 21, N-(2-aminophenyl)-4-((4-((((1R,2S)-2-(4-fluorophenyl)cyclopropyl)amino)methyl)-1H-1,2,3-triazol-1-yl)methyl)benzamide], the IC50 on LSD1 is 69 nM.
At LSD1, `Nc1ccccc1NC(=O)c1ccc(Cn2cc(CN[C@H]3C[C@@H]3c3ccc(F)cc3)nn2)cc1` [Compound 22, N-(2-aminophenyl)-4-((4-((((1S,2R)-2-(4-fluorophenyl)cyclopropyl)amino)methyl)-1H-1,2,3-triazol-1-yl)methyl)benzamide] had a 50% inhibitory concentration (IC50) of 854 nM.
On to `Nc1ccccc1NC(=O)c1ccc(CCCN2CCC(CN[C@@H]3C[C@H]3c3cnn(-c4ccccc4)c3)CC2)cc1` [Compound 23, N-(2-aminophenyl)-4-(3-(4-((((1R,2S)-2-(1-phenyl-1H-pyrazol-4-yl)cyclopropyl)amino)methyl)piperidin-1-yl)propyl)benzamide], for which the IC50 on LSD1 worked out at 10 nM; at HDAC1, 262 nM.
With `Nc1ccccc1NC(=O)c1ccc(CCCN2CCC(CN[C@H]3C[C@@H]3c3cnn(-c4ccccc4)c3)CC2)cc1` [Compound 24, N-(2-aminophenyl)-4-(3-(4-((((1S,2R)-2-(1-phenyl-1H-pyrazol-4-yl)cyclopropyl)amino)methyl)piperidin-1-yl)propyl)benzamide], the half-inhibitory concentration (IC50) on LSD1 worked out at 6 nM; on HDAC1 it was 8600 nM.
On to `Nc1ccccc1NC(=O)c1ccc(CCCN2CCC(CN[C@H]3C[C@@H]3c3ccc(F)c(F)c3)CC2)cc1` [Compound 26, N-(2-aminophenyl)-4-(3-(4-((((1S,2R)-2-(3,4-difluorophenyl)cyclopropyl)amino)methyl)piperidin-1-yl)propyl)benzamide], for which the IC50 at HDAC6 was greater than 10000 nM.
Compound `Cc1noc(C)c1-c1ccc([C@@H]2C[C@H]2NCC2CCN(Cc3ccc(C(=O)Nc4ccccc4N)cc3)CC2)cc1` [Compound 27, N-(2-aminophenyl)-4-((4-((((1R,2S)-2-(4-(3,5-dimethylisoxazol-4-yl)phenyl)cyclopropyl)amino)methyl)piperidin-1-yl)methyl)benzamide] came in with a 50% inhibitory concentration (IC50) against LSD1 of 6 nM.
For the compound `Cc1noc(C)c1-c1ccc([C@H]2C[C@@H]2NCC2CCN(Cc3ccc(C(=O)Nc4ccccc4N)cc3)CC2)cc1` [Compound 28, N-(2-aminophenyl)-4-((4-((((1S,2R)-2-(4-(3,5-dimethylisoxazol-4-yl)phenyl)cyclopropyl)amino)methyl)piperidin-1-yl)methyl)benzamide], the half-inhibitory concentration (IC50) at LSD1 was determined as 29 nM.
On the same count and under the same terms, for `Nc1ccccc1NC(=O)c1ccc(Cn2cc(CN[C@@H]3C[C@H]3c3ccccc3)nn2)cc1` [Compound 29, N-(2-aminophenyl)-4-((4-((((1R,2S)-2-phenylcyclopropyl)amino)methyl)-1H-1,2,3-triazol-1-yl)methyl)benzamide] the value was 671 nM.
